Tested on: rabbit brush border membrane vesicles (BBMV)
Assay: inhibition of cholesterol uptake in rabbit brush border membrane vesicles (scavenger receptor-mediated uptake of radiolabelled cholesterol ester from donor particles)
Format: biochemical
Settings: inhibition of uptake of radiolabelled cholesterol ester from loaded donor particles into the BBMV bilayer; test concentration not given
Method: Chem. Int. Ed. 2004, 43, 4653-4656; Kvaerno, L. et. al. Org. Lett. 2005, 7, 1145-1148, van Bennekum, A. et. al. Biochemistry 2005, 44, 4517-4525).
The compounds of the invention (commercially obtained or prepared according to Wu, G. Z. et al., J. Org. Chem. 1999, 64, 3714-3718) together with the glucuronide (the metabolite of ezetimibe, prepared according to Vaccaro and Davis, Bioorg. Med. Chem. Lett. 1998, 8, 313-318) as appropriate reference compounds were evaluated by well-established methods to determine their inhibition of cholesterol uptake in rabbit brush border membrane vesicles (BBMV) (Table 1). Briefly, the scavenger receptor-mediated uptake of radiolabelled cholesterol ester from the loaded donor particles into the BBMV bilayer was measured in the presence of various compounds of the invention and appropriate reference compounds (Kvaerno, L. et al, Angew. Chem. Int. Ed. 2004, 43, 4653-4656; Kvaerno, L. et al, Org. Lett. 2005, 7, 1145-1148).

Structure (SMILES)	CAI (%) Inhibition
CCCNC(=O)c1ccc(N2C(=O)O[C@H](CO)[C@H]2c2ccc(O)cc2)cc1 [Compound 15, 4-((4R,5S)-5-(hydroxymethyl)-4-(4-hydroxyphenyl)-2-oxooxazolidin-3-yl)-N-propylbenzamide]	15 ± 4%
O=C1O[C@H](Cn2nncc2-c2ccccc2)[C@@H](c2ccc(O)cc2)N1c1ccc(F)cc1 [Compound 29, (4R, 5R)-3-(4-fluorophenyl)-4-(4-hydroxyphenyl)-5-((5-phenyl-1H-1,2,3-triazol-1-yl)methyl)oxazolidin-2-one]	15 ± 1%
O=C1O[C@H](Cn2nncc2-c2ccc(F)cc2)[C@@H](c2ccc(O)cc2)N1c1ccc(F)cc1 [Compound 30, (4R,5R)-3-(4-fluorophenyl)-5-((5-(4-fluorophenyl)-1H-1,2,3-triazol-1-yl)methyl)-4-(4-hydroxyphenyl)oxazolidin-2-one]	16 ± 1%
CN(C)CCNC(=O)c1ccc(N2C(=O)O[C@H](CO)[C@H]2c2ccc(O)cc2)cc1 [Compound 33, N-(2-(dimethylamino)ethyl)-4-((4R,5S)-5-(hydroxymethyl)-4-(4-hydroxyphenyl)-2-oxooxazolidin-3-yl)-benzamide]	16 ± 2%
C[N+](C)(C)CCNC(=O)c1ccc(N2C(=O)O[C@H](CO)[C@H]2c2ccc(OCc3ccccc3)cc2)cc1 [Compound 34, ((4R,5S)-4-(4-(benzyloxy)phenyl)-5-(hydroxy-methyl)-2-oxooxazolidin-3-yl)-N-(2-(trimethylamonium-iodide)ethyl)benzamide]	29 ± 3%
C[N+](C)(C)CCNC(=O)c1ccc(N2C(=O)O[C@H](CO)[C@H]2c2ccc(O)cc2)cc1 [Compound 35, ((4R,5S)-4-(4-hydroxyphenyl)-5-(hydroxymethyl)-2-oxooxazolidin-3-yl)-N-(2-(trimethylamoniumbromide)ethyl)-benzamide]	20 ± 1%
O=C(NCCN1CCOCC1)c1ccc(N2C(=O)O[C@H](CO)[C@H]2c2ccc(OCc3ccccc3)cc2)cc1 [Compound 36, 4-((4R,5S)-4-(4-(benzyloxy)phenyl)-5-(hydroxymethyl)-2-oxooxazolidin-3-yl)-N-(2-morpholinoethyl)-benzamide]	33 ± 2%
O=C(NCCN1CCOCC1)c1ccc(N2C(=O)O[C@H](CO)[C@H]2c2ccc(O)cc2)cc1 [Compound 37, 4-((4R,5S)-5-(hydroxymethyl)-4-(4-hydroxy-phenyl)-2-oxooxazolidin-3-yl)-N-(2-morpholinoethyl)-benzamide]	21 ± 3%
C[N+]1(CCNC(=O)c2ccc(N3C(=O)O[C@H](CO)[C@H]3c3ccc(OCc4ccccc4)cc3)cc2)CCOCC1.[I-] [Compound 38, 4-(2-(4-((4R,5S)-4-(4-(benzyloxy)phenyl)-5-(hydroxymethyl)-2-oxooxazolidin-3-yl)benzamido)ethyl)-4-methylmorpholin-4-ium iodide]	24 ± 2%
O=C1[C@H](CC[C@H](O)c2ccc(F)cc2)[C@@H](c2ccc(O)cc2)N1c1ccc(F)cc1 [Ezetimibe, reference compound]	15 ± 4%

Reference: patent publication EP1958941A1, “Oxazolidinones and their use as hypocholesterolemic agents” (Lipideon Biotechnology AG, priority 2007, dated 2008)
